# Assay results: article PMC9367672, “In vitro differences in toddalolactone metabolism in various species and its effect on cytochrome P450 expression” (Pharmaceutical Biology, 2022)
# What was measured:
# Assay type in all cases: in vitro ADME
# RAMs = experiment: Enzyme kinetics of toddalolactone metabolism in rabbit liver microsomes (oxidative metabolism and glucuronidation); details: RAMs; for V max: toddalolactone 1–200 μM
# Experimental: (§1) The CYP reaction system (200 μL) consisted of 0.1 M potassium phosphate buffer (pH 7.4), an NADPH-generating system (1 mM NADPH, 10 mM G-6-P, 1 unit/mL G-6-PD, 4 mM MgCl2), and liver microsomes or recombinant human microsomes (supersomes). Each of the in vitro enzymatic assays using liver microsomes was linear with respect to incubation time and amount of protein. After a pre-incubation at 37 °C for 3 min, the reactions were initiated by adding NADP^+. After incubating for 60 min, the reactions were quenched by adding 200 μL of ice-cold acetonitrile. Samples were centrifuged at 18,000 g for 15 min at 4 °C and 10 μL of supernatant was analyzed using an HPLC system. NADPH or CYP enzyme sources were not used in the control group to ensure that the metabolic reactions were CYP- and NADPH-dependent. All incubation assays were completed in triplicate. The data are presented as mean ± standard deviation (SD).
# (§2) In the UGT reaction system, liver microsomes were incubated in 200 μL of the reaction system containing 4 mM UDPGA, 5 mM MgCl2, 20 µg/mL alamethicin, and 50 mM Tris-HCl buffer (pH 7.4). After pre-incubation at 37 °C for 3 min, UDPGA was added to the mixture to initiate the reactions. The mixtures were incubated at 37 °C for 60 min, followed by the addition of 200 μL of cold methanol to terminate the reactions. After centrifugation at 18,000 g for 15 min, 10 μL of the supernatant was analyzed by HPLC.
# (§3) The enzyme kinetics of toddalolactone in oxidative metabolism and glucuronidation were determined by incubating liver microsomes (0.2 mg/mL) or CYPs (15 nM) with different concentrations of toddalolactone (1–200 μM). The kinetic parameters including Km and Vmax were obtained by fitting the experimental data to the Michaelis–Menten equation (Equation (1)), biphasic kinetics equation (Equation (2)), or substrate inhibition equation (Equation (3)) (He et al. [2018]), and the results were graphically represented on Eadie–Hofstee plots. The in vitro intrinsic clearance (CLint) was calculated based on the Vmax/Km ratio. Metabolites were quantified using the standard curve for toddalolactone because of the absence of metabolite standards. All incubations were repeated in three independent experiments. Kinetic constants were expressed with mean ± SD: (1) V=Vmax×[S]/Km+[S] (2) V=Vmax1×[S]/Ks1+[S]+Vmax2×[S]/Ks2+[S] (3) V=Vmax×[S]/Ks+[S]+[S]^2/Ksi where v is the rate of reaction, Vmax is the estimated maximum velocity, [S] is the substrate concentration, and Km is the affinity constant of the substrate; Vmax1 and Vmax2 represent the estimated maximum velocity of the two metabolic phases; Ks1 and Ks2 represent the affinity constants for two metabolic phases; Ks and Ksi are the substrate affinity and inhibition constants, respectively.
# (§4) The enzyme kinetics in oxidative metabolism and glucuronidation of toddalolactone were studied, and preliminary experiments were performed to ensure that metabolites were formed in the linear range of both reaction time and microsomal protein concentration. The metabolite with the largest peak area was used to calculate the kinetic parameter values (Km, Vmax and CLint). Based on the results of toddalolactone metabolism in different species, the kinetic parameter values in RLMs, DLMs, MLMs, HLMs, RAMs, MIMs, PLMs, CYP1A1 and CYP3A5 were calculated using P4, P4, P4, P4, P2, P2, P4, P4 and P4 data in oxidative metabolism, respectively. In the glucuronidation reaction, the kinetic parameter values in RLMs, MLMs, HLMs, RAMs and PLMs were calculated using P5, P6, P6, P6 and P5 data, respectively.
# [1] = as above; details: rabbit, liver microsomes, pH 7.4, RAMs, Vmax/Km
# Experimental: as §1, §2, §3, §4
# [2] = Metabolic stability assessment in dog liver microsomes; details: beagle, pH 7.4, DLMs, CYP incubation system, toddalolactone 20 μM, 0-90 min, read-out: half-life value (T1/2)
# Experimental: as §1, with “NADPH or CYP enzyme sources were not used in the control group to ensure that the metabolic reactions were CYP- and NADPH-dependent. All incubation assays were completed in triplicate. The data are presented as mean ± standard deviation (SD).” left out
# (§5) In the UGT reaction system, liver microsomes were incubated in 200 μL of the reaction system containing 4 mM UDPGA, 5 mM MgCl2, 20 µg/mL alamethicin, and 50 mM Tris-HCl buffer (pH 7.4). […] After centrifugation at 18,000 g for 15 min, 10 μL of the supernatant was analyzed by HPLC.
# (§6) Toddalolactone (20 μM) was incubated with different liver microsomes, including HLMs, DLMs, PLMs, MLMs, RAMs, RLMs or MIMs in oxidative metabolism and glucuronidation reaction systems. […] The mixtures were centrifuged at 18,000 g for 15 min at 4 °C and then 10 μL of the supernatant was analyzed by HPLC. […]
# (§7) The peak areas of toddalolactone and its metabolites were detected using a HPLC system (Shimadzu, Kyoto, Japan). […]
# other rhCYP isoforms = experiment: Reaction phenotyping with the other recombinant human CYP isoforms; details: other rhCYP isoforms (of thirteen), 15 nM, 37 °C, 60 min
# Experimental: as §1
# Thirteen cDNA-expressed human CYP isoforms (CYP1A1, CYP1A2, CYP2A6, CYP2B6, CYP2C8, CYP3A4, CYP2C19, CYP3A5, CYP1B1, CYP2C9, CYP2D6, CYP2E1 and CYP4F2) were used to identify the isoform(s) involved in the biotransformation of toddalolactone. Toddalolactone (10 μM) was incubated with each recombinant CYP (15 nM) for 60 min at 37 °C and metabolites were identified by HPLC.
# [3] = Metabolic stability assessment in human liver microsomes (CYP and UGT incubation systems); details: pH 7.4, HLMs, toddalolactone 20 μM, 0-90 min
# Experimental: as §1, with “NADPH or CYP enzyme sources were not used in the control group to ensure that the metabolic reactions were CYP- and NADPH-dependent. All incubation assays were completed in triplicate. The data are presented as mean ± standard deviation (SD).” left out
# as §5, §6, §7
# [4] = Metabolic stability assessment in mini pig liver microsomes; details: pH 7.4, PLMs, toddalolactone 20 μM, 0-90 min
# Experimental: as §1, with “NADPH or CYP enzyme sources were not used in the control group to ensure that the metabolic reactions were CYP- and NADPH-dependent. All incubation assays were completed in triplicate. The data are presented as mean ± standard deviation (SD).” left out
# as §5, §6, §7
# [5] = P450-catalyzed oxidation, P2 formation
# [6] = glucuronide metabolism, P6 formation
# [7] = CYP incubation system, read-out: half-life value (T1/2)
# [8] = UGT incubation system, read-out: T1/2 value
smiles,measurement,setting,value
COc1cc2oc(=O)ccc2c(OC)c1C[C@@H](O)C(C)(C)O [toddalolactone],K m,RAMs; [5],76.46 ± 16.02 µM
same,V max,RAMs; [5],20.03 ± 1.72 pmol/min/mg protein
same,K m,RAMs; [6],91.46 ± 28.22 µM
same,V max,RAMs; [6],11.98 ± 2.19 pmol/min/mg protein
same,microsomal CLint,[1]; [5],0.26 µL/min/mg
same,microsomal CLint,[1]; [6],0.12 µL/min/mg
same,half-life at 20 μM,[2],8.23 ± 0.7 h
same,catalysis of toddalolactone metabolism by rhCYP isoform,other rhCYP isoforms,very limited or even no catalytic activity
same,half-life at 20 μM,[3]; [7],11.2 h
same,half-life at 20 μM,[3]; [8],1.38 h
same,half-life at 20 μM,[4]; [7],5.12 ± 0.467 h
same,half-life at 20 μM,[4]; [8],1.42 ± 0.0717 h
